Reference: patent US20210024583A1, “COMPOSITIONS AND METHODS FOR PEPTIDE MEDIATED OLIGONUCLEOTIDE DELIVERY TO THE CENTRAL NERVOUS SYSTEM” (The Regents of the University of California, priority 2019, published 2021)
Entries after “also recorded” stand apart in the source; their conditions may differ. Where no end group is shown, it is not given here.

Experiments:
[1] = Brain distribution of FITC labeled siαSyn after single i.p. injection (co-labeling NeuN, GFAP); assay type: in vivo, mouse
Description: To determine the co-localization between fluorescein isothiocyanate (FITC)-siαSyn and cellular markers, double labeling experiments were performed as previously described (44, 45). […] vibratome sections were immunolabeled with the rabbit polyclonal antibody against α-synuclein (Chemicon, affinity purified polyclonal), NeuN (neuronal marker, Millipore) or GFAP (astroglial marker, Chemicon) and the immunoreactive structures were detected with the Tyramide Signal Amplification™-Direct (Red) system (NEN Life Sciences) while the siRNA was directly visualized by the appended FITC label. Sections were imaged with a Zeiss 63X™ (N.A. 1.4) objective on an Axiovert 35™ microscope (Zeiss) with an attached MRC1024™ LSCM system (BioRad).
4 hours after injection, mice were sacrificed, whole brain removed and fixed. (A,B) Sections were stained for the neuronal marker NeuN and the nuclear stain DAPI and then visualized for co-localization with the FITC labeled siRNA. (D,E) Sections were stained for the astrocytic marker GFAP and the nuclear stain DAPI and then visualized for co-localization with the FITC labeled siRNA.

α-synuclein = α-synuclein levels and co-localization in cortex after single i.p. FITC siαSyn:peptide; assay type: in vivo, mouse; settings: single i.p. injection, 4 hours

FITC labeled siRNA delivered to NeuN positive neurons, compared with C2-9r peptide ([1]; α-syn tg mice, 4 hours after i.p. injection): significantly greater
co-localization of FITC label of siαSyn with αSyn expressing cells (α-synuclein): co-localized with αSyn expressing cells
Sequence: RLTRKRGLKLAGGGGGRRRRRRRRR [ApoB^11]
co-labeling of FITC labeled siαSyn RNA with astrocyte marker GFAP ([1]; 4 hours after i.p. injection): co-labeled with the astrocyte marker, GFAP in the cell body but not in the processes
cellular localization of FITC labeled siαSyn in brain (co-labeling with NeuN, GFAP) ([1]; 4 hours after single i.p. injection, 50 μg, siRNA conjugated to the named peptide): delivered siαSyn RNA to neuronal cells; also recorded: primarily to neurons and only to a lesser extent the astrocytes
